What all share (format): cell-based
In experiment [1] the target is T1, AHR (Homo sapiens, UniProt P35869).
T1 sequence (P35869 11-848): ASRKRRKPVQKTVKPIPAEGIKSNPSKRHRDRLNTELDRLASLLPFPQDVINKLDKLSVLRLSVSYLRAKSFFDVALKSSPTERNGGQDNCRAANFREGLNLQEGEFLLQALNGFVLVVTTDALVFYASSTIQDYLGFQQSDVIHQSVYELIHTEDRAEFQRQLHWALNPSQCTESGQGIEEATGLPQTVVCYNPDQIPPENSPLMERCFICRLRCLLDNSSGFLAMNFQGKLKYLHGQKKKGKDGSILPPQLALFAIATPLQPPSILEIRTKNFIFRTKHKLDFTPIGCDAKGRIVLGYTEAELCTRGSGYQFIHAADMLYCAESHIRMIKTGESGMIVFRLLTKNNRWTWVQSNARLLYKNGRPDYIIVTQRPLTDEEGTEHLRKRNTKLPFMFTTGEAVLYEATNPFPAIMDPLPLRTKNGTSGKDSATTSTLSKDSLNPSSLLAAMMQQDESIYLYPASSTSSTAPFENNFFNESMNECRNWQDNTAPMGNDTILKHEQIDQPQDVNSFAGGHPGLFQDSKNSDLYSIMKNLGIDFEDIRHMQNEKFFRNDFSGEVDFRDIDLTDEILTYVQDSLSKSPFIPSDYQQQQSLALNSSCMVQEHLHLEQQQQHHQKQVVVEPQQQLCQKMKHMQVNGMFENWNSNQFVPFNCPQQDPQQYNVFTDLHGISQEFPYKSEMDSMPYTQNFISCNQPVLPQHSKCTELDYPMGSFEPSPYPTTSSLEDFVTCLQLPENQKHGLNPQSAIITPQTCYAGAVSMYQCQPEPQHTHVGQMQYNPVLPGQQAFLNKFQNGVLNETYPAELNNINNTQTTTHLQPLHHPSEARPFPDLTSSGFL
Nature of the experiment: In vitro assay 1: antagonism in human cell line (transactivation assay, U87 cells prestimulated with kynurenic acid, DRE firefly luciferase reporter). More on the design: host or cells: U87 glioblastoma cells, stably transfected with DRE firefly luciferase and renilla reporter constructs. Particulars: 150 uM kynurenic acid, 20 hours, read-out: Assay 1: AHR-luc Hum Antagonism IC50. In outline: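 U87 glioblastoma cells with endogenous AHR, stably carrying a DRE-driven firefly luciferase reporter and a constitutive renilla reporter. Cells prestimulated with the AHR agonist kynurenic acid before compound addition; data normalized to positive and negative controls.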

Experiment [2] deals with T1, AHR. Put plainly: In vitro assay 2: agonism in human cell line (transactivation assay, U87 cells, DRE firefly luciferase reporter). The conditions noted are these: no kynurenic acid, 20 hours, read-out: Assay 2: AHR-luc Hum Agonism IC50. More on the design: host or cells: U87 glioblastoma cells, stably transfected with DRE firefly luciferase and renilla reporter constructs. In outline: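 U87 glioblastoma cells with endogenous AHR, stably carrying DRE-driven firefly luciferase and constitutive renilla reporters. 300 uM kynurenic acid served as positive activation control; data normalized to positive and negative controls.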
Background: In a reporter assay the amount or activity of a reporter protein is the signal.

Experiment [3] concerns the target T1, AHR. Put plainly: In vitro assay 3: AHR-regulated CYP1A1 expression in human cell line (U937, qPCR, KA stimulation). Particulars: U937 cells, 200 uM KA, 6 hours, CYP1A1 expression by qPCR; read-out: Assay 3: Hum CYP1A1 Antagonism IC50. In outline:
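U937 human monocytic cells were stimulated with 200 uM KA for 6 h, with or without compound at eight concentrations from 1 nM to 3 uM, in duplicate. CYP1A1 mRNA was quantified by Taqman qPCR as fold expression normalised to HPRT. Unstimulated cells served as negative control.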
For orientation: Quantitative PCR measures a nucleic acid by following its amplification.

The results in this text go back to patent publication US12522594B2, “2-heteroaryl-3-oxo-2,3-dihydropyridazine-4-carboxamides for the treatment of cancer” (Deutsches Krebsforschungszentrum, priority 2017, dated 2026).

A value given as a limit tells only on which side of the number the result lay.

For orientation: IC50 means the concentration that inhibits the measured activity by half.

Take `O=C(N[C@H](CO)CF)c1cc(-c2ccc(Cl)cc2)nn(-c2cccnc2)c1=O` [Example 93, (+)-6-(4-Chlorophenyl)-N-[(2R)-1-fluoro-3-hydroxypropan-2-yl]-3-oxo-2-(pyridin-3-yl)-2,3-dihydropyridazine-4-carboxamide]: the values for the IC50 at AHR [1], on AHR [2] and on AHR [3] were 24.8 nM, over 20000 nM and 4.32 nM, respectively.
For the molecule `O=C(NC(CO)C(F)(F)F)c1cc(-c2ccc(Cl)cc2)nn(-c2cccnc2)c1=O` (racemic) [Example 76, 6-(4-Chlorophenyl)-3-oxo-2-(pyridin-3-yl)-N-[(2RS)-1,1,1-trifluoro-3-hydroxypropan-2-yl]-2,3-dihydropyridazine-4-carboxamide], the IC50 at AHR [1] is 11.9 nM; at AHR [2], over 20000 nM; at AHR [3], 13.8 nM.
In the case of `CC(C)(O)CNC(=O)c1cc(-c2ccc(C(F)(F)F)nc2)nn(-c2cnsc2)c1=O` [Example 240, N-(2-Hydroxy-2-methylpropyl)-3-oxo-2-(1,2-thiazol-4-yl)-6-[6-(trifluoromethyl)pyridin-3-yl]-2,3-dihydropyridazine-4-carboxamide], the figures for the IC50 on AHR [1], on AHR [2] and at AHR [3] were 10.6 nM, over 20000 nM and 22.7 nM, respectively.
On the same counts, the results for `C[C@@H](CO)NC(=O)c1cc(-c2ccc(C(F)(F)F)cc2)nn(-c2cnn(C)c2)c1=O` [Example 39, (+)-N-[(2S)-1-Hydroxypropan-2-yl]-2-(1-methyl-1H-pyrazol-4-yl)-3-oxo-6-[4-(trifluoromethyl)phenyl]-2,3-dihydropyridazine-4-carboxamide] are 2.08 nM, over 20000 nM and 3.39 nM.
In the case of `O=C(N[C@@H]1CCC[C@@H]1O)c1cc(-c2ccc(C(F)(F)F)cc2)nn(-c2cccnc2)c1=O` [Example 103, N-[(1R,2S)-2-Hydroxycyclopentyl]-3-oxo-2-(pyridin-3-yl)-6-[4-(trifluoromethyl)phenyl]-2,3-dihydropyridazine-4-carboxamide], the IC50 on AHR [1] is 13.3 nM; on AHR [2], over 20000 nM; at AHR [3] it was 24.5 nM.
Take `C[C@H](NC(=O)c1cc(-c2ccc(Cl)cc2)nn(-c2cnn(C(F)F)c2)c1=O)C(C)(C)O` [Example 264, 6-(4-Chlorophenyl)-2-[1-(difluoromethyl)-1H-pyrazol-4-yl]-N-[(2S)-3-hydroxy-3-methylbutan-2-yl]-3-oxo-2,3-dihydropyridazine-4-carboxamide]: the IC50 on AHR [1] is 44.4 nM; at AHR [2], over 20000 nM; at AHR [3] it was 85.6 nM.
On the same counts, the results for `C[C@@H](CO)NC(=O)c1cc(-c2ccc(N(C)C)cc2)nn(-c2cnn(C)c2)c1=O` [Example 311, 6-[4-(Dimethylamino)phenyl]-N-[(2S)-1-hydroxypropan-2-yl]-2-(1-methyl-1H-pyrazol-4-yl)-3-oxo-2,3-dihydropyridazine-4-carboxamide] are 1.82 nM, over 20000 nM and 1.03 nM.
`Cc1ccc(-c2cc(C(=O)N[C@@H](C)CO)c(=O)n(-c3cccnc3)n2)cc1` [Example 152, N-[(2S)-1-Hydroxypropan-2-yl]-6-(4-methylphenyl)-3-oxo-2-(pyridin-3-yl)-2,3-dihydropyridazine-4-carboxamide]: the IC50 at AHR [1] was 24.1 nM; on AHR [2], over 20000 nM; on AHR [3] it was 21.3 nM.
Regarding `Cn1cc(-n2nc(-c3ccc(OC(F)(F)F)cc3)cc(C(=O)N[C@H]3CCCC[C@H]3O)c2=O)cn1` [Example 46, N-[(1S,2R)-2-Hydroxycyclohexyl]-2-(1-methyl-1H-pyrazol-4-yl)-3-oxo-6-[4-(trifluoromethoxy)phenyl]-2,3-dihydropyridazine-4-carboxamide], the results for the IC50 at AHR [1], at AHR [2] and on AHR [3] were 1.48 nM, over 20000 nM and 1.36 nM, respectively.
For the molecule `O=C(N[C@H]1CCC[C@@H]1O)c1cc(-c2ccc(C(F)(F)F)cc2)nn(-c2cccnc2)c1=O` [Example 102, N-[(1S,2S)-2-Hydroxycyclopentyl]-3-oxo-2-(pyridin-3-yl)-6-[4-(trifluoromethyl)phenyl]-2,3-dihydropyridazine-4-carboxamide], the IC50 at AHR [1] is 1.88 nM; on AHR [2] it was over 20000 nM; at AHR [3], 1.69 nM.
For the molecule `C[C@H](CO)NC(=O)c1cc(-c2ccc(C(F)(F)F)cc2)nn(-c2cccnc2)c1=O` [Example 118, N-[(2R)-1-Hydroxypropan-2-yl]-3-oxo-2-(pyridin-3-yl)-6-[4-(trifluoromethyl)phenyl]-2,3-dihydropyridazine-4-carboxamide], the IC50 on AHR [1] is 45.1 nM; at AHR [2] it was over 20000 nM; on AHR [3], 57 nM.
On the same counts, the results for `Cn1cc(-n2nc(-c3ccc(C(F)(F)F)cc3)cc(C(=O)N[C@H](CO)CF)c2=O)cn1` [Example 211, N-[(2R)-1-Fluoro-3-hydroxypropan-2-yl]-2-(1-methyl-1H-pyrazol-4-yl)-3-oxo-6-[4-(trifluoromethyl)phenyl]-2,3-dihydropyridazine-4-carboxamide] are 1.62 nM, over 20000 nM and 2.67 nM.
On to `C[C@@H](CO)NC(=O)c1cc(-c2ccc(Cl)cc2)nn(-c2cncc(F)c2)c1=O` [Example 80, 6-(4-Chlorophenyl)-2-(5-fluoropyridin-3-yl)-N-[(2S)-1-hydroxypropan-2-yl]-3-oxo-2,3-dihydropyridazine-4-carboxamide], for which the figures for the IC50 on AHR [1], at AHR [2] and at AHR [3] were 27.1 nM, over 20000 nM and 32.6 nM, respectively.
Turning to `C[C@@H](CO)NC(=O)c1cc(-c2ccc(Cl)cc2)nn(-c2ccc(F)s2)c1=O` [Example 220, 6-(4-Chlorophenyl)-2-(5-fluoro-2-thienyl)-N-[(2S)-1-hydroxypropan-2-yl]-3-oxo-2,3-dihydropyridazine-4-carboxamide], the IC50 at AHR [1] was 3.36 nM; on AHR [2], over 20000 nM; on AHR [3], 1.96 nM.
Regarding `CC(C)(O)CNC(=O)c1cc(-c2ccc(OC(F)(F)F)cc2)nn(-c2cccnc2)c1=O` [Example 292, N-(2-Hydroxy-2-methylpropyl)-3-oxo-2-(pyridin-3-yl)-6-[4-(trifluoromethoxy)phenyl]-2,3-dihydropyridazine-4-carboxamide], the IC50 on AHR [1] was 45.9 nM; on AHR [2], over 20000 nM; on AHR [3] it was 43.3 nM.
`Cc1ccc(-c2cc(C(=O)NCC(O)C(F)F)c(=O)n(-c3cnn(C)c3)n2)cc1` (single isomer, unassigned; enantiomer 2) [Example 15, N-(3,3-Difluoro-2-hydroxypropyl)-6-(4-methylphenyl)-2-(1-methyl-1H-pyrazol-4-yl)-3-oxo-2,3-dihydropyridazine-4-carboxamide, Enantiomer 2]: the IC50 on AHR [1] was 26.5 nM; on AHR [2], over 20000 nM; at AHR [3] it was 122 nM.
For `CC(C)(O)C(NC(=O)c1cc(-c2ccc(C(F)(F)F)cc2)nn(-c2cccnc2)c1=O)C(F)(F)F` (single isomer, unassigned; (-)) [Example 241, (−)-3-Oxo-2-(pyridin-3-yl)-N-(1,1,1-trifluoro-3-hydroxy-3-methylbutan-2-yl)-6-[4-(trifluoromethyl)phenyl]-2,3-dihydropyridazine-4-carboxamide], the IC50 on AHR [1] was 10.9 nM; on AHR [2] it was over 20000 nM; on AHR [3], 36.3 nM.
